Measured values: US4743589A, “Treatment of endometriosis” (Roussel UCLAF, priority 1979, dated 1988)

Legend:
ovarian steroidogenosis = assay: inhibitory activity on ovarian steroidogenosis in women (seric progesterone by radioimmunoassay); type: in vivo; conditions: for seric level of progesterone, reduction compared to the controls: 500 μg intranasal at 8 A.M. and 5 P.M. of one luteal-phase day, typical case (sheet 3); for level of progesterone as % of pretreatment cycles (100%): 12 cycles
Protocol: The study was conducted for 6 consecutive cycles consisting of 2 pretreatment cycles, 2 treatment cycles and 2 post-treatment cycles. […] Daily blood samples were taken between 4 and 6 P.M. to measure seric levels of LH, FSH, progesterone and estradiol which were determined by radioimmuno-logictests with double antibodies. The antibodies to measure LH and FSH were furnished by the National Pituitory Agency of N.I.H. of Bethesda, Md.
Estradiol and progesterone were measured with highly specific antibodies developed against 7-(0-carboxymethyl)-oxime of estradiol and 12-(0-carboxymethyl)-oxime of progesterone, respectively [3H] 17β-estradiol and ^125 I-progesterone-12-[0-carboxymethyl)-oxime]used as tracers. The serum was extracted with benzene and the steroids were separated with a LH-20 column before the determination. The radioimmunological results were exploited by the program derived from model II of Rodbard and Lewald as in Example 1 and the statistical significance was measured by the multiple level test of Ducan-Kramer of Example 1. The results shown in the graphs of sheets 3 to 5 of the Figures.

[1] = test system: testicular steroidogensis; assay: inhibitory activity against testicular steroidogenesis in men in good health (seric LH, FSH and steroids by radioimmunoassay); type: in vivo
Protocol: The said product was administered intranasally at a dose of 500 μg in a few drops of distilled water at 8 A.M. on the third day of the test. For 2 days prior to the treatment and for 6 days after the treatment, samples of blood were taken daily at 8 A.M., 3 P.M. and 10 P.M. On the day of administration of the LH-RH agonist, blood samples were taken at 11 A.M. and 6 P.M.
The series concentrations of LH and FSH were measured by radioimmuno-logic dosages with double antibodies and the antibodies for measuring LH and FSH were furnished by the National Pituitary Agency of N.I.H. in Bethesda, Md. The seric concentrations of steroids was measured by radioimmuno-logic dosages in which one ml of serum was extracted with ether and the steroids were separated on a LH-20 column before measuring with radioimmuno-logic dosages. The radioimmuno-logic dosage results were determined by a program derived from model II of Rodbard et al [Second Karolinska Symposium on Research Methods in Reproductive Endrocrinology, Diczfalusky Editor, Copenhague (1970), p. 79-103]. The statistical significance was determined by the "multiple level test" of Duncan-Kramer [Kramer, Biometrics, Vol. 12 (1956), p. 307]. The results are shown in the graphs on sheet 1 of the Figures filed herewith.

[2] = test system: testicular steroidogenosis; assay: inhibitory activity on testicular steroidogenosis in a patient with prostate cancer; type: in vivo, human; conditions: intranasal 500 μg twice a day
Description: The inhibitory activity of [D Ser (tbu)^6 des Gly NH2^10 ] […] The results are reported in the graphs of sheet 2 of the Figures.

[3] = 12 cycles of treatment (sheet 5)

With `CCNC(=O)[C@@H]1CCCN1C(=O)[C@H](CCCNC(=N)N)NC(=O)[C@H](CC(C)C)NC(=O)[C@@H](COC(C)(C)C)NC(=O)[C@H](Cc1ccc(O)cc1)NC(=O)[C@H](CO)NC(=O)[C@H](Cc1c[nH]c2ccccc12)NC(=O)[C@H](Cc1c[nH]cn1)NC(=O)[C@@H]1CCC(=O)N1` [[D Ser (tbu)^6 des Gly NH2^10]LH-RH ethylamide] as the compound, how does the “seric level of progesterone, reduction compared to the controls” value (ovarian steroidogenosis; first cycle of treatment) read?
Its value is 13%.

And the “seric level of progesterone, reduction compared to the controls” value (ovarian steroidogenosis; second cycle of treatment)?
Its value is 34%.

What about the “level of progesterone, reduction compared to the controls” value (ovarian steroidogenosis; [3]) of the same compound?
Its value is 46%.

What about the “scale (range) of the level of progesterone compared to the controls” value (ovarian steroidogenosis; [3]) of the same compound?
The value was 13 to 127%.

And the “level of progesterone as % of pretreatment cycles (100%)” value (ovarian steroidogenosis; cycles of post-treatment)?
The value was 99%.

And the “level of progesterone as % of pretreatment cycles (100%)” value (ovarian steroidogenosis; cycles of treatment)?
Its value is 46%.

What about the “day after administration on which the steroid level returned to normal” value ([1]; human, single intranasal dose 500 μg) of the same compound?
The value was “fourth day”.

What about the “time to return of LH and FSH to normal levels after administration” value ([1]; men, intranasal 500 μg) of the same compound?
Its value is 8 to 12 h.

What about the seric concentration of 17β-estradiol after the deferred elevation ([1]; men, intranasal 500 μg, day after treatment, different subjects, elevated from 20 to 35) of the same compound?
The seric concentration of 17β-estradiol after the deferred elevation was 100 to 250 pg/mL.

And the “seric concentration of pregnenolone, 17-OH-pregnenolone, progesterone, 17-OH-progesterone, Δ5-androstene-3β,17β-diol and testosterone on the day of treatment” value ([1]; men, intranasal 500 μg, day of treatment)?
Its value is “increased”.

And the “level of androgenic steroids in plasma” value [2]?
The value was “diminution”.

And the level of testosterone ([2]; two weeks of treatment)?
Its level of testosterone is “stabilized at a very low level”.
